How the values were obtained:
[1] = Octanol/water partition coefficient (Kow), batch partition method; assay type: physicochemical; conditions: 25 °C; batch partition method (BP)
Experimental: (§1) Kow was measured for nine PFAS (Table 2) to supplement the data set for descriptor determination. The nine PFAS were selected based on measurement feasibility and structural diversity. The shared-headspace or batch partition method was used as described previously.[5] Details of the methods are given in SI-1.

[2] = PP-LFER solute descriptor determination from GC retention and partition coefficient data; assay type: physicochemical; conditions: for Solute descriptor L (logarithmic hexadecane/air partition coefficient, KHxd/air): 25 °C, updated in the iterative calculation; for Solute descriptor S (dipolarity/polarizability parameter): final adjusted value, shared within a PFAS group
Source text: The GC columns used were, from low to high polarity, HP-5ms Ultra Inert (poly[5% phenyl/95% methyl]siloxane equivalent; Agilent Technologies, Santa Clara, CA), DB-200 (poly[35% trifluoropropyl/65% methyl]siloxane; Agilent Technologies), DB-225ms (poly[50% cyanopropylphenyl/50% methyl]siloxane equivalent; Agilent Technologies), and SolGel-WAX (polyethylene glycol; Trajan, Ringwood, Australia). Column dimensions were all 30 m × 0.25 mm i.d. with a coating thickness of 0.25 μm.
The method for GC retention time measurements follows that of a previous study.[18] Briefly, a 7890A/5975C GC/MS instrument (Agilent Technologies) equipped with an MPS2 autosampler and CIS4 injector (Gerstel, Mülheim an der Ruhr, Germany) was used for all measurements. For each column, isothermal retention times were measured at four temperatures in the range of 30–120 °C to cover all target compounds. The temperature at the injector and transfer line was fixed at 120 °C. The carrier gas was He at a flow rate of 1.2 mL/min. Compounds were introduced into the GC by injecting either headspace (100–250 μL) above the pure compound or solution in acetone (1 μL). Split injections were performed with a split ratio of 20–250. Column dead time (t0) was determined by injecting air and measuring Ar (m/z 40). From the measured retention time (t), the retention factor (k) was calculated as k = (t–t0)/t0. Measurements with t < t0 + 0.1 min were considered too short and discarded. For each column and temperature, k values were obtained for 29–52 PFAS and 29–48 reference compounds.
The standard procedure for solute descriptor determination was as follows. First, the system parameters in eq 1 were calibrated for each column (or partition system) and temperature by MLR using log k (or log K) data and solute descriptors for reference compounds. Dimethylformamide, 1-pentylamine, dimethylsulfoxide, and dodecamethylcyclohexasiloxane (D6) were removed from the log k data sets, because they frequently appeared as outliers (>3 SD) of the PP-LFER model fit. Reference data sets for hexadecane/water partition coefficients (KHxd/w),[21]Kow,[22] and octanol/air partition coefficients (Koa)[23] were taken from the cited references and amended with data for organosilicon compounds.[24],[25] Similar to PFAS, organosilicon compounds have weak van der Waals interaction properties[9] and it may be beneficial to include them in reference data sets. The solute descriptors for PFAS were then back-calculated by using the calibrated PP-LFER equations. Of the five descriptors, V can be calculated from the molecular structure[26] (note: the fragment value for F from Goss et al.[11] was used), and L was available for the PFAS studied.[18] Thus, the left side of eq 2 was known, and MLR was performed to obtain S, A, and B on the right side. [drawing 2] 2 To determine the three descriptors, a minimum of three k and K data are required for a given PFAS compound. The data used here were: k measured for 60 PFAS in this study, KHxd/w for 21 PFAS,[5]Kow for 12 PFAS (see the Results and Discussion section), and Koa for 3 PFAS.[11]
Key to the accurate determination of the polar interaction descriptors is the availability of K data for partition systems with water as a partition phase because water is a strong H-bond donor and acceptor phase and thus the corresponding K values are sensitive to the H-bonding properties of the solute.[27] In particular, at least one solvent/water or air/water partition coefficient is required to determine B because there is no commonly used GC phase that is a significant H-bond donor. In the data set, KHxd/w is sensitive to both A and B and Kow is sensitive to B. However, KHxd/w and Kow data are not available for all PFAS. To increase the number of PFAS for which descriptors can be determined, the following assumptions were made. […]

[3] = design: method as in PMID 18800530; conditions: 25 °C; batch partition method (BP); ref [4]; cited from earlier work
[4] = Octanol/water partition coefficient (Kow), shared-headspace method; assay type: physicochemical; conditions: 25 °C; shared-headspace method (SH)
Experimental: as §1

| Structure (SMILES) | Measured Log Kow, Mean ± SD [1] | Solute descriptor L (logarithmic hexadecane/air partition coefficient, KHxd/air) [2] | Solute descriptor S (dipolarity/polarizability parameter) [2] | Log Kow, Mean ± SD [3] | Measured Log Kow, Mean ± SD [4] |
| --- | --- | --- | --- | --- | --- |
| CNS(=O)(=O)C(F)(F)C(F)(F)C(F)(F)C(F)(F)F [MeFBSA, N-Methylperfluorobutanesulfonamide] | 3.51 ± 0.00 | 3.566 | 0.88 |  |  |
| CN(CCO)S(=O)(=O)C(F)(F)C(F)(F)C(F)(F)C(F)(F)F [MeFBSE, N-Methylperfluorobutanesulfonamidoethanol] | 3.11 ± 0.04 | 4.769 | 1.00 |  |  |
| NS(=O)(=O)C(F)(F)C(F)(F)C(F)(F)C(F)(F)F [PFBSA, Perfluorobutanesulfonamide] | 2.85 ± 0.02 | 3.607 | 0.96 |  |  |
| OCCC(F)(F)C(F)(F)C(F)(F)C(F)(F)F [4:2 FTOH, 1H,1H,2H,2H-Perfluorohexan-1-ol] |  | 2.421 | 0.35 | 3.30 ± 0.04 |  |
| OCCC(F)(F)C(F)(F)C(F)(F)C(F)(F)C(F)(F)C(F)(F)F [6:2 FTOH, 1H,1H,2H,2H-Perfluorooctan-1-ol] |  | 2.997 | 0.35 | 4.54 ± 0.01 |  |
| OCCC(F)(F)C(F)(F)C(F)(F)C(F)(F)C(F)(F)C(F)(F)C(F)(F)C(F)(F)F [8:2 FTOH, 1H,1H,2H,2H-Perfluorodecan-1-ol] |  | 3.554 | 0.35 | 5.58 ± 0.06 |  |
| OCC(F)(F)C(F)(F)C(F)(F)C(F)(F)C(F)(F)C(F)(F)C(F)(F)F [7:1 FTOH, 1H,1H-Perfluorooctan-1-ol] |  | 2.715 | 0.30 |  | 5.01 ± 0.02 |

Source: article PMC10653080, “Intermolecular Interactions, Solute Descriptors, and Partition Properties of Neutral Per- and Polyfluoroalkyl Substances (PFAS)” (Environmental Science & Technology, 2023)
